{
  "source": "patent US20240058268A1",
  "about": "“METHODS OF TREATING SKIN DISORDERS” (priority 2021, published 2024)",
  "tested_on": "acne papule biopsies of subjects with moderate inflammatory acne of the back",
  "experiment": "Large scale gene expression profiling of skin biopsies (Affymetrix U133 Plus 2.0)",
  "assay_type": "in vivo, human",
  "method": "Subjects with moderate inflammatory acne of the back were treated with a 0.005% trifarotene or vehicle cream on dedicated back areas for 27 days, and 4 biopsies were collected on each subject (non-involved skin, acne papule, Trifarotene and vehicle treated site). Large scale gene expression profiling of the biopsies was performed using Affymetrix technology, and treatment specific gene expression profiles were generated using statistical modeling. Clinical investigations were conducted in accordance with the Declaration of Helsinki principles, and the ICH Guideline for Good Clinical Practice. The clinical study received approval from the ethics committee of Brest, France (reference CPP Quest 6-755). This was a post-hoc analysis of data collected from 9 patients aged 18-35 with acne vulgaris (EUDRACT No. 2012-001943-36). In the 4-week open-label clinical study, subjects received once-daily applications of trifarotene 0.005% cream and vehicle cream on the back. Each patient had four biopsies performed, 1 from skin without visible acne lesion (non-involved skin) and three at the site of acne papule, with the following timing: one prior to treatment (day 0), one after vehicle treatment (day 27), and one after trifarotene treatment (day 27). Aubert et al, Br J Dermatol., 2018 August; 179(2):442-456. Samples were collected for large-scale gene expression profiling. Subjects provided written informed consent prior to biopsies. Subjects with moderate inflammatory acne on the back at the screening visit, defined by scores of between 2 and 4 for the whole back, with at least one area scored at 2 and a maximum of three nodules using the ECLA (Acne Lesion Score Scale) scale, were included in the study. Each subject had at least 2 papules 48 hours old, one on each half of the back. Subjects were excluded if they had active skin disease or inflammation other than acne, underlying known conditions which could interfere with study results, history of allergy to local anesthetics and/or topical antiseptics, history of bleeding disorder, or pregnancy/lactation (females). Predefined washout periods were mandated for acne treatments, immunosuppressants, immunomodulators, systemic corticosteroids, and isotretinoin. Study personnel applied treatment to patients' backs with trifarotene cream (right side) or vehicle (left side) once daily for 28 days excluding weekends (n=19 applications). Biopsies of nonlesional areas of trifarotene- and vehicle-treated skin were made under local anaesthesia at day 27 as shown in FIG. 1. Biopsies were stored in RNAlater TissueProtect Tubes (Qiagen, Les Ulis, France). Bioinformatics Analysis: Data analysis was performed using Array Studio software (Omicsoft Corporation, Cary, NC, USA). Affymetrix U133 Plus 2.0 chips (GeneChipTM, Santa Clara, CA, USA) were normalized using the multi-array average (RMA) method (See […], et al. Exploration, normalization, and summaries of high density oligonucleotide array probe level data. Biostatistics, 2003; 4:249-64.) Low expression probe-sets were filtered. Only Affymetrix identifiers with expression ≥2^6 in at least 5 samples in one condition were selected for further statistical analysis, resulting in data for 36245 out of the 54675 probe-sets present on the HG U133 Plus 2.0 array. Mean expression levels were obtained by calculating the geometric means of the RMA-normalized data. A linear model was fitted to the normalized data, and statistical testing of the comparisons of interest were performed using a moderated t-test. Paired-test was used when applicable. P values were adjusted for multiple testing using the Benjamini-Hochberg false discovery rate (FDR) method (See e.g., Benjamini Y, et al., Controlling the false discovery rate in behavior genetics research. Behav Brain Res, 2001; 125:279-84). Candidate differentially expressed genes were selected using a combination of fold-change and […]; genes with absolute fold change>2 and FDA<0.05 were considered as candidate differentially expressed genes. […]",
  "key": {"[1]": {"details": "lesional skin after 0.005% cream (day 27) vs before treatment"}},
  "data": [
    {"smiles": "CC(C)(C)c1cc(-c2cc(-c3ccc(C(=O)O)cc3)ccc2OCCO)ccc1N1CCCC1", "note": "[Trifarotene, 3″-tert-Butyl-4′-(2-hydroxy-ethoxy)-4″-pyrrolidin-1-yl-[1,1′,3′,1″ ]terphenyl-4-carboxylic acid]", "values": [
      {"measurement": "number of genes upregulated among the 67 genes regulated", "setting": "LINC01224, INA, GABRA4, PXMP4", "result": "four"},
      {"measurement": "number of genes uniquely downregulated (not in spontaneously resolving signature)", "setting": "absolute fold change>2, genes of inflammatory cell infiltration and extracellular matrix reorganization", "result": 67, "unit": "genes"},
      {"measurement": "number of genes in common between acne lesion profile and trifarotene-treated lesion profile, all reversed", "setting": "acne signature vs trifarotene signature", "result": 354, "unit": "genes"},
      {"measurement": "Fold Change R3 vs L1: ADAM12 (226777_at)", "setting": "[1]", "result": "−3.84"},
      {"measurement": "Fold Change R3 vs L1: ADAMDEC1 (206134_at)", "setting": "[1]", "result": "−6.29"},
      {"measurement": "Fold Change R3 vs L1: APELA (1559280_a_at)", "setting": "[1]", "result": "−2.70"},
      {"measurement": "Fold Change R3 vs L1: ARHGAP9 (224451_x_at)", "setting": "[1]", "result": "−2.14"},
      {"measurement": "Fold Change R3 vs L1: BCAT1 (214452_at)", "setting": "[1]", "result": "−3.66"},
      {"measurement": "Fold Change R3 vs L1: BIRC3 (210538_s_at)", "setting": "[1]", "result": "−2.23"},
      {"measurement": "Fold Change R3 vs L1: CBLN2 (242301_at)", "setting": "[1]", "result": "−2.61"},
      {"measurement": "Fold Change R3 vs L1: CCDC71L (229521_at)", "setting": "[1]", "result": "−2.26"},
      {"measurement": "Fold Change R3 vs L1: CCNA1 (205899_at)", "setting": "[1]", "result": "−3.55"},
      {"measurement": "Fold Change R3 vs L1: CD37 (204192_at)", "setting": "[1]", "result": "−2.13"},
      {"measurement": "Fold Change R3 vs L1: CD69 (209795_at)", "setting": "[1]", "result": "−2.10"},
      {"measurement": "Fold Change R3 vs L1: CD80 (1554519_at)", "setting": "[1]", "result": "−4.03"},
      {"measurement": "Fold Change R3 vs L1: CD84 (230391_at)", "setting": "[1]", "result": "−2.57"},
      {"measurement": "Fold Change R3 vs L1: CLEC4A (221724_s_at)", "setting": "[1]", "result": "−2.32"},
      {"measurement": "Fold Change R3 vs L1: CTLA4 (236341_at)", "setting": "[1]", "result": "−2.54"},
      {"measurement": "Fold Change R3 vs L1: CYTH4 (219183_s_at)", "setting": "[1]", "result": "−2.36"},
      {"measurement": "Fold Change R3 vs L1: DMXL2 (215761_at)", "setting": "[1]", "result": "−2.35"},
      {"measurement": "Fold Change R3 vs L1: EVI2B (211742_s_at)", "setting": "[1]", "result": "−2.35"},
      {"measurement": "Fold Change R3 vs L1: FERMT3 (223303_at)", "setting": "[1]", "result": "−2.12"},
      {"measurement": "Fold Change R3 vs L1: FNDC3B (229865_at)", "setting": "[1]", "result": "−2.35"},
      {"measurement": "Fold Change R3 vs L1: GABRA4 (208463_at)", "setting": "[1]", "result": 2.26},
      {"measurement": "Fold Change R3 vs L1: GASK1B (219872_at)", "setting": "[1]", "result": "−2.30"},
      {"measurement": "Fold Change R3 vs L1: GLIPR1 (204222_s_at)", "setting": "[1]", "result": "−2.48"},
      {"measurement": "Fold Change R3 vs L1: GLIPR2 (225604_s_at)", "setting": "[1]", "result": "−2.24"},
      {"measurement": "Fold Change R3 vs L1: GLIS3 (229435_at)", "setting": "[1]", "result": "−3.07"},
      {"measurement": "Fold Change R3 vs L1: GPRIN3 (1556698_a_at)", "setting": "[1]", "result": "−2.27"},
      {"measurement": "Fold Change R3 vs L1: HLA-DPA1 (213537_at)", "setting": "[1]", "result": "−2.14"},
      {"measurement": "Fold Change R3 vs L1: HP (206697_s_at)", "setting": "[1]", "result": "−2.99"},
      {"measurement": "Fold Change R3 vs L1: IL2RG (204116_at)", "setting": "[1]", "result": "−2.28"},
      {"measurement": "Fold Change R3 vs L1: IL18BP (222868_s_at)", "setting": "[1]", "result": "−2.37"},
      {"measurement": "Fold Change R3 vs L1: INA (204465_s_at)", "setting": "[1]", "result": 2.34},
      {"measurement": "Fold Change R3 vs L1: IRF8 (204057_at)", "setting": "[1]", "result": "−2.02"},
      {"measurement": "Fold Change R3 vs L1: ITGAX (210184_at)", "setting": "[1]", "result": "−2.85"},
      {"measurement": "Fold Change R3 vs L1: KLHL6 (1555275_a_at)", "setting": "[1]", "result": "−3.05"},
      {"measurement": "Fold Change R3 vs L1: LINC01224 (233142_at)", "setting": "[1]", "result": 3.51},
      {"measurement": "Fold Change R3 vs L1: LOXL2 (202998_s_at)", "setting": "[1]", "result": "−2.18"},
      {"measurement": "Fold Change R3 vs L1: LPXN (216250_s_at)", "setting": "[1]", "result": "−2.25"},
      {"measurement": "Fold Change R3 vs L1: LY86 (205859_at)", "setting": "[1]", "result": "−2.18"},
      {"measurement": "Fold Change R3 vs L1: MMP12 (204580_at)", "setting": "[1]", "result": "−11.13"},
      {"measurement": "Fold Change R3 vs L1: MMP13 (205959_at)", "setting": "[1]", "result": "−4.3"},
      {"measurement": "Fold Change R3 vs L1: MMP19 (204575_s_at)", "setting": "[1]", "result": "−2.71"},
      {"measurement": "Fold Change R3 vs L1: MSR1 (214770_at)", "setting": "[1]", "result": "−2.45"},
      {"measurement": "Fold Change R3 vs L1: NCEH1 (225847_at)", "setting": "[1]", "result": "−2.70"},
      {"measurement": "Fold Change R3 vs L1: NRP2 (223510_at)", "setting": "[1]", "result": "−2.46"},
      {"measurement": "Fold Change R3 vs L1: P2RY8 (229686_at)", "setting": "[1]", "result": "−2.23"},
      {"measurement": "Fold Change R3 vs L1: P2RY10 (236280_at)", "setting": "[1]", "result": "−2.05"},
      {"measurement": "Fold Change R3 vs L1: PAPSS2 (203060_s_at)", "setting": "[1]", "result": "−2.60"},
      {"measurement": "Fold Change R3 vs L1: PARVG (223562_at)", "setting": "[1]", "result": "−2.23"},
      {"measurement": "Fold Change R3 vs L1: PTHLH (211756_at)", "setting": "[1]", "result": "−2.55"},
      {"measurement": "Fold Change R3 vs L1: PTPN22 (236539_at)", "setting": "[1]", "result": "−2.27"},
      {"measurement": "Fold Change R3 vs L1: PTPRO (208121_s_at)", "setting": "[1]", "result": "−2.26"},
      {"measurement": "Fold Change R3 vs L1: PXMP4 (238746_at)", "setting": "[1]", "result": 2.14},
      {"measurement": "Fold Change R3 vs L1: RAC2 (207419_s_at)", "setting": "[1]", "result": "−2.03"},
      {"measurement": "Fold Change R3 vs L1: RHOH (204951_at)", "setting": "[1]", "result": "−2.57"},
      {"measurement": "Fold Change R3 vs L1: SELP (206049_at)", "setting": "[1]", "result": "−2.10"},
      {"measurement": "Fold Change R3 vs L1: SELPLG (209879_at)", "setting": "[1]", "result": "−2.06"},
      {"measurement": "Fold Change R3 vs L1: SH2B3 (203320_at)", "setting": "[1]", "result": "−2.26"},
      {"measurement": "Fold Change R3 vs L1: SIRPB1 (206934_at)", "setting": "[1]", "result": "−2.45"},
      {"measurement": "Fold Change R3 vs L1: SLAMF7 (219159_s_at)", "setting": "[1]", "result": "−2.49"},
      {"measurement": "Fold Change R3 vs L1: SLC6A14 (219795_at)", "setting": "[1]", "result": "−2.04"},
      {"measurement": "Fold Change R3 vs L1: SNAP25 (202508_s_at)", "setting": "[1]", "result": "−2.40"},
      {"measurement": "Fold Change R3 vs L1: TRG-AS1 (239237_at)", "setting": "[1]", "result": "−2.33"},
      {"measurement": "Fold Change R3 vs L1: TYROBP (204122_at)", "setting": "[1]", "result": "−2.39"},
      {"measurement": "Fold Change R3 vs L1: VCAN (215646_s_at)", "setting": "[1]", "result": "−2.43"},
      {"measurement": "Fold Change R3 vs L1: XCL1 (206366_x_at)", "setting": "[1]", "result": "−2.02"}
    ]}
  ]
}
